Earlier results on one compound are cited in PMC10379611 (International Journal of Molecular Sciences, 2023).

Molecules are shown by their SMILES.

For this series the following is noted: recommended clinical dose of Paxlovid; cited from earlier work.

In the case of `CC(C)c1nc(CN(C)C(=O)N[C@H](C(=O)N[C@@H](Cc2ccccc2)C[C@H](O)[C@H](Cc2ccccc2)NC(=O)OCc2cncs2)C(C)C)cs1` [Ritonavir], the observed plasma concentrations was 0.5 µM.
